Our source for the IC50 values is patent US5493007A, “Platelet aggregation inhibitors having high specificity for GPIIBIIIA” (Genentech, Inc., priority 1994, dated 1996).

Test [1] addresses T1, GP IIb IIIa (Homo sapiens, UniProt P05106+P08514). Briefly: Fibrinogen-GP IIb IIIa Receptor ELISA Binding Assay. To be noted: purified human platelet GP IIb IIIa, fibrinogen-coated plates; read-out: ELISA IC50 Fibrinogen GPIIb IIIa. Details: from tissue; host or cells: outdated human platelets. On the procedure: The method used is essentially that described in Nachman and Leung (J. Clin. Invest., 69:263-269 [1982]). The GP IIb IIIa is essentially purified as described in Fitzgerald et al., (Anal. Biochem. 151:169-177 [1985]).
Outdated human platelets are washed 3 times with 10 mM tris-HCl, 150 mM NaCl (TBS), 1 mM EDTA, pH 7.5, and centrifuged at 2000×g to pellet cells. Cells are lysed in 5 pellet volumes of TBS, 1% Triton X-100, 1 mM Ca2 Cl2, and followed by centrifugation at 30,000×g. The supernatant fraction is collected and the supernatant is loaded onto a concanavalin-A column, previously equilibrated in TBS, 1 mM Ca2 Cl2, 0.1% Triton, 0.05% NaN3 and eluted with 0.2M α-methylmannoside. Fractions are pooled and loaded onto a heparin-agarose column. The flowthrough is collected and concentration on an Amicon YM 30 filter to a volume of approximately 5-10 mi. The concentrate is then applied to an S-300 column (500 ml) and 6 ml fractions are collected. The GP IIb IlIa containing fractions are collected, pooled, and stored at -80° C.
The purification of fibrinogen is conducted essentially as described by Lipinska et al., (J. Lab. Clin. Med. 507, [1974]). Briefly, a 0.3% w/v solution of human fibrinogen (Kabi #5302) is dissolved in 150 mM NaCl. Saturated (NH4)2 SO4 is added dropwise with stirring to the fibrinogen solution to obtain about 16% saturation. The precipitate is spun down in appropriate size bottles at 2000×g. The supernatant is decanted and the precipitate resuspended in 150 mM NaCl (approximately 50% of the original volume). NH4 SO4 is again added dropwise to obtain 16% saturation. The suspension is spun down and the precipitate is resuspended in Tris-saline in a minimal volume (approximately 5% of the original volume). Any remaining insoluble material is spun down at 2000 rpm in a Sorval type centrifuge and the fibrinogen supernatant is decanted and dialyzed overnight at 4° C. against Tris-saline. Characterization of the fibrinogen is by the Bradford protein assay, SDS-PAGE, and/or Western blotting using well known standard procedures.
Briefly, 96 well plates are coated (Type Nunc 1 Maxisorp™) with 10 μg/ml purified fibrinogen (100 μl/well), and allowed to stand overnight at 4° C. The plates are washed three times with PBS Tween (0.137M NaCl, 0.003M KCl, 0.008M Na2 HPO4, 0.001M KH2 PO4, pH 7.4 at room temperature, 0.05% Tween-20) and blocked for 1 to 2 hours at room temperature with 200 μl/well TNCNT (which is 0.5% BSA, 20mM Tris, pH 7.5 at room temperature, 120 mM NaCl, 0.2% NAN3, 2mM CaCl2, 0.05% Tween 20, 0.5% BSA [Calbiochem RIA grade or better]) on a plate shaker. The plates are again washed three times with PBS/Tween and then 50 μl of sample in TNCNT is added. The mixture is incubated for 15 minutes at room temperature on a plate shaker. The stock solution of purified GP IIb IIIa receptor from human platelets, (0.4-1.0 mg/ml GP IIb IIIa in 0.1% Triton X-100, 1 mM CaCl2, 20 mM Tris, 150 mM NaCl, 0.05% NaN3 in 0.3M N-acetyl glucosamine pH 7.5, stored at -70° C.), is reconstituted to about 40 μg/ml in TNCNT. Fifty μl of this diluted GP IIb IIIa is then added to each well and incubated on a plate shaker at room temperature. After one hour, the plates are washed four times with PBS/Tween and 100 μl of a polyclonal or monoclonal antibody specific for GP IIIa such as AP3 (1 μg/ml) (See e.g. Newman et al., Blood, 65:227-232 [1985]) in ELISA buffer (PBS, 0.5% BSA, 0.05% Tween 20, 0.01% Thimerasol) is added. After a one hour incubation at room temperature on a plate shaker, the samples are washed 4 times with PBS/Tween. One hundred μl of GAM-HRP (horse radish peroxidase conjugate of goat anti-mouse IgG [Pel-Freeze Cat. 715305-1] dissolved in ELISA buffer) previously diluted to 1:10,000 is then added and the samples are incubated 1 hour at room temperature on a plate shaker. […]

Test [2] has as its target T1, GP IIb IIIa. The experiment in a line: GP IIb IIIa -von Willebrand factor (vWF) ELISA Assay. The format is binding. Details: GP IIb IIIa, prepared by the method of Fitzgerald et al; from tissue. On the procedure: Microtiter plates are coated with 1.0 μg/ml GP IIb IIIa, prepared by the method of Fitzgerald et al., (Anal. Biochem. 151:169-177 [1985]) and allowed to incubate overnight in coat buffer. The plates are then washed three times in wash buffer (0.05% Tween 20 in PBS) and 150 μl of assay buffer is added and allowed to incubate for 1-2 hours at room temperature on plate shaker. The plates are washed three times and 50 μl of 2x inhibitor in assay buffer (Assay buffer: 0.5% BSA/50 mM Tris, 100 mM NaCl, 1.0 mM CaCl2, 1.0mM MgCl2, 1.0 mM MnCl2; coat buffer is the same but without BSA) is added. Fifty μl of 4.0 μg/ml vWF (prepared as described by Ledford et al., Thrombosis and Haemostasis, 64(4): 569-575 [1990]) in assay buffer is then added and allowed to incubate for one hour at room temperature on plate-shaker. The plates are washed three times and the antibody mixture is added (1:5000 of mouse anti-vWF and 1:5000 of rabbit-anti-mouse-Fc-HRP, both commercially available) in assay buffer and incubated for 1 hour at room temperature on plate-shaker. Plates are again washed three times and 100 μl of substrate solution (10 mg OPD, 6.5 μl H2 O2, 15 ml phosphate citrate buffer) is added and incubated at room temperature. The color change of OPD/H2 O2 reagent is read at 492 nm with a 405 nm reference wavelength on the filter photometer.

Setting [3] is: GP IIb IIIa-coated plates, vWF, read-out: ELISA IC50 GPIIb IIIa vWF.

Where a SMILES comes first, the peptide text is derived from it. Bridges are numbered along the chain shown (N, C = ends). [ ]: non-standard residue; d: D form. Pen = CC(C)(S)[C@H](N)C(=O)O; dOrn = NCCC[C@@H](N)C(=O)O; Orn = NCCC[C@H](N)C(=O)O; Ava = NCCCCC(=O)O

T1 sequence (P08514 32-887 limits assumed): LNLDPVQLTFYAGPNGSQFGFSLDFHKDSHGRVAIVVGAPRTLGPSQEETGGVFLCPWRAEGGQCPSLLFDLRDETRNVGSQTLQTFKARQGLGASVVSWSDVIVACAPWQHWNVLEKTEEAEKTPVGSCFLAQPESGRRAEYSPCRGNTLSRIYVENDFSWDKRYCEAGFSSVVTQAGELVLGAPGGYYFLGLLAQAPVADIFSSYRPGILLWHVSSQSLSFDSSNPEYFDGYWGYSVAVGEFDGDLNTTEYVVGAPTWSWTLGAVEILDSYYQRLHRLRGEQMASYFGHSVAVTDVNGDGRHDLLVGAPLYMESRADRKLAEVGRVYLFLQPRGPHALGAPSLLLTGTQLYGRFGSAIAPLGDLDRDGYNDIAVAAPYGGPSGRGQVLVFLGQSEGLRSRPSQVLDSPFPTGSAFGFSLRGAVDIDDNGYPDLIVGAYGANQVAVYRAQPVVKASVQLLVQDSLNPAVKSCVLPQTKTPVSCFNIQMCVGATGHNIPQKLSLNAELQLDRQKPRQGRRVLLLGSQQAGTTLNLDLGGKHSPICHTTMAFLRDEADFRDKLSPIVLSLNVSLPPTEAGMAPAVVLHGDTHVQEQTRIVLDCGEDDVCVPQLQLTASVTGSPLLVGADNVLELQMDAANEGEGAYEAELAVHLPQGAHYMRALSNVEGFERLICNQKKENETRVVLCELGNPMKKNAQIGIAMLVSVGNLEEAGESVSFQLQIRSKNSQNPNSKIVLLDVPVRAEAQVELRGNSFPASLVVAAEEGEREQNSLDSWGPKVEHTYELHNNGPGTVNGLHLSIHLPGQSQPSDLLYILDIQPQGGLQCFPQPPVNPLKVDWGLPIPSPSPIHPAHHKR
T1 sequence (P08514 891-1039 partner limits assumed): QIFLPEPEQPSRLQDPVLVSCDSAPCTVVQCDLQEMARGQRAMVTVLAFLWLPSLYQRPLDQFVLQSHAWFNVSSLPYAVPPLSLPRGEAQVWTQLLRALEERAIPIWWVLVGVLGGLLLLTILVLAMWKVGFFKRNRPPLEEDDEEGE
T1 sequence (P05106 27-788): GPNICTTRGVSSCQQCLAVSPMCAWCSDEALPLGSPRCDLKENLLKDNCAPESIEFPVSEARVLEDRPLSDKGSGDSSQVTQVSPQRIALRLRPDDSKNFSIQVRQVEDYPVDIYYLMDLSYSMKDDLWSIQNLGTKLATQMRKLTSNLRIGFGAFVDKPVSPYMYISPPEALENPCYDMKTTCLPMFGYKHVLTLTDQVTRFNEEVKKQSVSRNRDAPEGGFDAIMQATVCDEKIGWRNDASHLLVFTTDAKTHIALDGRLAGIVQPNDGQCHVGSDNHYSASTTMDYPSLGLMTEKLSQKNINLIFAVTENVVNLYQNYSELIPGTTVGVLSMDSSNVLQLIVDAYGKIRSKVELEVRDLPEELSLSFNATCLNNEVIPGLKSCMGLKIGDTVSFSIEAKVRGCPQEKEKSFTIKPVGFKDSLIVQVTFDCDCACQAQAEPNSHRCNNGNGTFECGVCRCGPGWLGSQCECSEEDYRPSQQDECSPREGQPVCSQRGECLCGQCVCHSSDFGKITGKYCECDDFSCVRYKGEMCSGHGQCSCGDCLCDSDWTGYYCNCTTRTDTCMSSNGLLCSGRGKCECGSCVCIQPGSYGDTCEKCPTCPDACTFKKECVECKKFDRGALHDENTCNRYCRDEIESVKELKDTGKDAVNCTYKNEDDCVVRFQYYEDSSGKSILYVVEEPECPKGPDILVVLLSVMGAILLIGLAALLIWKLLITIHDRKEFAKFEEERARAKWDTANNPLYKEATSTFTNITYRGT

For `N=C(N)NCCC[C@@H]1NC(=O)[C@@H](Cc2ccc(O)cc2)NC(=O)C(CCCCN)SC[C@@H](C(=O)O)NC(=O)[C@H](CC(=O)O)NC(=O)CNC1=O` (single isomer, unassigned) [9/10, cyclo-S-2-L-(6-aminocaproyl)-Lys--dTyr--Arg--Gly--Asp--Cys--OH], the IC50 stood at 5.3 nM in test [1] and 0.785 nM in test [2] (setting [3]).

Consider `N=C(N)NCCC[C@@H]1NC(=O)[C@@H](Cc2ccc(O)cc2)NC(=O)C(CCCCN)SC[C@@H](C(=O)O)NC(=O)[C@H](CC(=O)O)NC(=O)CNC1=O` (single isomer, unassigned) [9/11, cyclo-S-2-L-(6-aminocaproyl)-Lys--dTyr--Arg--Gly--Asp--Cys--OH], for which the IC50 was 14.3 nM in test [1] and 6.95 nM in test [2] (setting [3]).

Turning to `N=C(N)NCCC[C@H](NC(=O)[C@@H]1CSCC(=O)N[C@H](Cc2ccc(O)cc2)C(=O)N[C@@H](CCCNC(=N)N)C(=O)NCC(=O)N[C@@H](CC(=O)O)C(=O)N1)C(N)=O` [7/1, cyclo-S-acetyl-dTyr--Arg--Gly--Asp--Cys--Arg--NH2] ({CH2CO}-[dY]RGDCR-NH2; thioether N-5), the IC50 in test [1] amounted to 10 nM; in test [2] (unit inferred, read-out: IC50 in the GPIIb IIIa -vWF ELISA), 13.8 nM.

As to `N=C(N)NCCC[C@@H]1NC(=O)[C@@H](Cc2ccc(O)cc2)NC(=O)CSC[C@@H](C(=O)N[C@H](CCCNC(=N)N)C(N)=O)NC(=O)[C@H](CC(=O)O)NC(=O)CNC1=O` [7/2, cyclo-S-acetyl-dTyr--Arg--Gly--Asp--Cys--dArg--NH2] ({CH2CO}-[dY]RGDC[dR]-NH2; thioether N-5), the IC50 was 13.5 nM in test [1] and 2.93 nM in test [2] (setting [3]).

For the compound `N=C(N)NCCC[C@@H]1NC(=O)[C@@H](Cc2ccc(O)cc2)NC(=O)CSC[C@@H](C(=O)N[C@@H](CCCCN)C(N)=O)NC(=O)[C@H](CC(=O)O)NC(=O)CNC1=O` [7/3, cyclo-S-acetyl-dTyr--Arg--Gly--Asp--Cys--Lys--NH2] ({CH2CO}-[dY]RGDCK-NH2; thioether N-5), the IC50 came out at 17 nM in test [1] and 15.9 nM in test [2] (setting [3]).

As to `N=C(N)NCCC[C@@H]1NC(=O)[C@@H](Cc2ccc(O)cc2)NC(=O)CSC[C@@H](C(=O)N[C@H](CCCCN)C(N)=O)NC(=O)[C@H](CC(=O)O)NC(=O)CNC1=O` [7/4, cyclo-S-acetyl-dTyr--Arg--Gly--Asp--Cys--dLys--NH2] ({CH2CO}-[dY]RGDC[dK]-NH2; thioether N-5), the values for the IC50 in test [1] and in test [2] (setting [3]) were 8.3 nM and 1.56 nM, respectively.

Turning to `N=C(N)NCCC[C@@H]1NC(=O)[C@@H](Cc2ccc(O)cc2)NC(=O)CSC[C@@H](C(=O)N[C@@H](CCCN)C(N)=O)NC(=O)[C@H](CC(=O)O)NC(=O)CNC1=O` [7/5, cyclo-S-acetyl-dTyr--Arg--Gly--Asp--Cys--Orn--NH2] ({CH2CO}-[dY]RGDC[Orn]-NH2; thioether N-5), the IC50 in test [1] is 11 nM; in test [2] (setting [3]), 6.84 nM.

Turning to `N=C(N)NCCC[C@@H]1NC(=O)[C@@H](Cc2ccc(O)cc2)NC(=O)CSC[C@@H](C(=O)N[C@H](CCCN)C(N)=O)NC(=O)[C@H](CC(=O)O)NC(=O)CNC1=O` [7/6, cyclo-S-acetyl-dTyr--Arg--Gly--Asp--Cys--dOrn--NH2] ({CH2CO}-[dY]RGDC[dOrn]-NH2; thioether N-5), the IC50 came to 10.5 nM in test [1] and 1.92 nM in test [2] (setting [3]).

As for `N=C(N)NCCC[C@H](NC(=O)[C@H](Cc1ccc(O)cc1)NC(=O)[C@@H]1CSCC(=O)N[C@H](Cc2ccc(O)cc2)C(=O)N[C@@H](CCCNC(=N)N)C(=O)NCC(=O)N[C@@H](CC(=O)O)C(=O)N1)C(N)=O` [7/7, cyclo-S-acetyl-dTyr--Arg--Gly--Asp--Cys--Tyr--Arg--NH2] ({CH2CO}-[dY]RGDCYR-NH2; thioether N-5), in test [1], the IC50 was found to be 8.9 nM.

As to `CC1(C)SCC(=O)N[C@H](Cc2ccc(O)cc2)C(=O)N[C@@H](CCCCN)C(=O)NCC(=O)N[C@@H](CC(=O)O)C(=O)N[C@@H]1C(=O)N[C@@H](CCCNC(=N)N)C(N)=O` [7/16, cyclo-S-acetyl-dTyr--Lys--Gly--Asp--Pen--Arg--NH2] ({CH2CO}-[dY]KGD[Pen]R-NH2; thioether N-5), the IC50 is 150 nM in test [1] and 53.5 nM in test [2] (setting [3]).

For `CC1(C)SCC(=O)N[C@H](Cc2ccc(O)cc2)C(=O)N[C@@H](CCCCN)C(=O)NCC(=O)N[C@@H](CC(=O)O)C(=O)N[C@@H]1C(=O)N[C@@H](CCCCN)C(N)=O` [7/17, cyclo-S-acetyl-dTyr--Lys--Gly--Asp--Pen--Lys--NH2] ({CH2CO}-[dY]KGD[Pen]K-NH2; thioether N-5), the IC50 turned out to be 238 nM in test [1] and 73.1 nM in test [2] (setting [3]).

Consider `N=C(N)NCCC[C@@H]1NC(=O)[C@@H](Cc2ccc(O)cc2)NC(=O)CSC[C@@H](C(=O)N[C@@H](CCC(N)=O)C(N)=O)NC(=O)[C@H](CC(=O)O)NC(=O)CNC1=O` [7/27, cyclo-S-acetyl-dTyr--Arg--Gly--Asp--Cys--Gln--NH2] ({CH2CO}-[dY]RGDCQ-NH2; thioether N-5), for which the IC50 in test [1] came out at 3.1 nM.

As to `N=C(N)NCCC[C@@H]1NC(=O)[C@@H](Cc2ccc(O)cc2)NC(=O)CSC[C@@H](C(=O)NCCCCC(=O)O)NC(=O)[C@H](CC(=O)O)NC(=O)CNC1=O` [7/28, cyclo-S-(1-5)-dTyr--Arg--Gly--Asp--Cys--X (X = aminovaleric acid)] ({CH2CO}-[dY]RGDC[Ava]-OH; thioether N-5), the IC50 in test [1] was determined as 70 nM.

As to `N=C(N)NCCC[C@@H]1NC(=O)[C@@H](Cc2ccc(O)cc2)NC(=O)CSC[C@@H](C(=O)O)NC(=O)[C@H](CC(=O)O)NC(=O)CNC1=O` [7/46, cyclo-S-acetyl-dTyr--Arg--Gly--Asp--Cys--OH] ({CH2CO}-[dY]RGDC-OH; thioether N-5), the IC50 in test [1] was found to be 3.2 nM; in test [2] (setting [3]) it was 0.18 nM.
